Test results as given in patent publication US10376520B2, “Methods for the treatment of cardiovascular disorders” (Galapagos NV, priority 2015, dated 2019).

System: RA patients
Test: LDL determination, Study 4 (RA patients, 4 weeks, add-on to MTX)
Assay type: in vivo, human
Conditions: for [LDL] levels: Study 4
Excerpt: Randomized, double-blind, placebo-controlled, multicenter, phase II study of Compound 1 (dosed as a [Compound 1:HCl:3H2O]) to compare four dose regimens versus placebo, in combination with methotrexate, administered for 4 weeks in the treatment of subjects with active rheumatoid arthritis who have an inadequate response to methotrexate alone.
Randomized double-blind, placebo-controlled add on study in subjects with active RA who have an inadequate response to MTX monotherapy, in combination with methotrexate, administered for 4 weeks in the treatment of subjects with active rheumatoid arthritis who have an inadequate response to methotrexate alone.
90 subjects randomized to one of 4 dose regimens of Compound 1 (dosed as a [Compound 1:HCl:3H2O]) or placebo, on top of their stable dose of MTX. Thus, each of the 4 different doses of Compound 1 (dosed as a [Compound 1:HCl:3H2O]) and placebo groups has 18 subjects.
Compound 1 (dosed as a [Compound 1:HCl:3H2O]) capsules administered orally in 30 mg, 75 mg, 150 mg, or 300 mg doses per day for 4 weeks.
The determination of [LDL]-cholesterol is made using an automated method taking advantage of the selective micellary solubilization of [LDL]-cholesterol by a nonionic detergent and the interaction of a sugar compound and lipoproteins (VLDL and chylomicrons).
When a detergent is included in the enzymatic method for cholesterol determination (cholesterol esterase, cholesterol oxidase coupling reaction), the relative reactivities of cholesterol in the lipoprotein fractions increase in this order: [HDL]<chylomicrons <VLDL <[LDL]. In the presence of Mg^2+, a sugar compound markedly reduces the enzymatic reaction of the cholesterol measurement in VLDL and chylomicrons. The combination of a sugar compound with detergent enables the selective determination of [LDL]-cholesterol in serum. (Friedewald et al., 1972; Rifai et al., 1992)
Homogeneous enzymatic colorimetric assay.
In the presence of peroxidase, the hydrogen peroxide generated reacts with 4-aminoantipyrine and Sodium N-(2-hydroxy-3-sulfopropyl)-3,5-dimethoxyaniline (HSDA) to form a purple-blue dye.
The color intensity of this dye is directly proportional to the cholesterol concentration and is measured photometrically.
Human serum and plasma samples [LDL] determination was done on a Roche/Hitachi Cobas c 701/702 system which automatically calculate the analyte concentration of each sample. Samples containing precipitates are centrifuged before performing the assay.

O=C(Nc1nc2cccc(-c3ccc(CN4CCS(=O)(=O)CC4)cc3)n2n1)C1CC1 [Compound 1, cyclopropanecarboxylic acid {5-[4-(1,1-dioxo-thiomorpholin-4-ylmethyl)-phenyl]-[1,2,4]triazolo[1,5-a]pyridin-2yl}-amide]
[LDL] % Mean % variation vs baseline after 4 weeks (30 mg qd): 7% | [LDL] % Mean % variation vs baseline after 4 weeks (75 mg qd): 7% | [LDL] % Mean % variation vs baseline after 4 weeks (150 mg qd): 1% | [LDL] % Mean % variation vs baseline after 4 weeks (300 mg qd): 13% | [LDL] levels (30 mg q.d., baseline): 3.34 mmol/L | [LDL] levels (30 mg q.d., week 1): 3.40 mmol/L | [LDL] levels (30 mg q.d., week 2): 3.35 mmol/L | [LDL] levels (30 mg q.d., week 3): 3.41 mmol/L | [LDL] levels (30 mg q.d., week 4): 3.60 mmol/L | [LDL] levels (75 mg q.d., baseline): 3.22 mmol/L | [LDL] levels (75 mg q.d., week 1): 3.25 mmol/L | [LDL] levels (75 mg q.d., week 2): 3.17 mmol/L | [LDL] levels (75 mg q.d., week 3): 3.14 mmol/L | [LDL] levels (75 mg q.d., week 4): 3.36 mmol/L | [LDL] levels (150 mg q.d., baseline): 3.01 mmol/L | [LDL] levels (150 mg q.d., week 1): 3.18 mmol/L | [LDL] levels (150 mg q.d., week 2): 2.95 mmol/L | [LDL] levels (150 mg q.d., week 3): 2.96 mmol/L | [LDL] levels (150 mg q.d., week 4): 3.06 mmol/L | [LDL] levels (300 mg q.d., baseline): 2.82 mmol/L | [LDL] levels (300 mg q.d., week 1): 3.19 mmol/L | [LDL] levels (300 mg q.d., week 2): 3.11 mmol/L | [LDL] levels (300 mg q.d., week 3): 3.18 mmol/L | [LDL] levels (300 mg q.d., week 4): 3.18 mmol/L
